The test system of experiment [1] is human acute myelocytic leukemia MV4;11 cell subcutaneous xenograft tumor. Description: In vivo antitumor activity in MV4;11 cell subcutaneous xenograft tumor model. Also noted: species or system NOD-SCID mice. The settings on record: MV4;11 xenograft, p.o. How it is done:
Cell culture: IMDM culture medium containing 10% fetal bovine serum (FBS), 37° C., 5% CO2.
(§1) NOD-SCID mice, female, 6-8 weeks(18-22 g), each mouse was subcutaneously inoculated with 0.1 mL (1×10^8) MV4;11 cells on the right back of each mouse. When the average tumor volume reached 150 mm^3, drug administration was started. The tumor volume was measured twice a week, and the volume was calculated in cubic millimeters. When the average tumor volume in the vehicle group reached more than 800 mm^3, the administration was terminated to compare the difference in the average tumor volume between the compound groups and the vehicle group. The antitumor efficacy of the compounds was evaluated by TGI (%). TGI (%) reflected the tumor growth inhibition rate.

Experiment [2] deals with human acute promyelocytic leukemia HL-60 cell subcutaneous xenograft tumor. The experiment in a line: In vivo antitumor activity in HL-60 cell subcutaneous xenograft tumor model. Also noted: species or system Nu/Nu mice. The settings on record: HL-60 xenograft, qd, p.o., 5 mg/Kg, 9 days. On the procedure: as §1, with “Cell culture: IMDM culture medium containing 20% fetal bovine serum (FBS), 37° C., 5% CO2; Nu/Nu” for “NOD-SCID”, “weeks (18-22” for “weeks(18-22”, “of HL-60 cell suspension (containing about 1×10^7 cells) in the axillary region of” for “(1×10^8) MV4;11 cells on”, “forelimb.” for “back of each mouse.”, “2-3 times per” for “twice a”, “group” for “groups”

Another experiment has as its system MV4;11 cells. The experiment in a line: In vitro MV4;11 cell proliferation inhibition (MTT method). It counts as cell-based. The settings on record: Homo sapiens. An excerpt:
The in vitro inhibitory effect of the synthesized compounds on cell proliferation was investigated.
The trade name of MTT was thiazole blue, which was a tetrazolium salt of a dye that could accept hydrogen atoms. […] Dimethyl sulfoxide could dissolve blue-purple complexes in cells, and its light absorption value could be measured at 490-550 nm wavelength with an enzyme-linked immunosorbent detector, which could indirectly reflect the number of cells. Within a certain range of the cell number, the amount of MTT crystals formed was proportional to the number of cells. The drug to be tested was successively diluted to different concentrations and added to a 96-well plate. The OD value was determined after the drug acted for a certain time. The size of the OD value could reflect the number of living cells, and its IC50 value was calculated with SPSS19.0.
Suspension of cells: Cells were […] by centrifugation and counted. A certain density of cell suspension was formulated with a complete culture medium, blown evenly, inoculated on a 96-well plate, 100 μL per well, and then cultured in a CO2 incubator.
An appropriate amount of the drug was added to a calculated amount of DMSO and dissolved. The resulting mixture was dispensed and stored at −20° C. The formulation concentration was 10 mM.
The stock solution of the compound having a concentration of 10 mM was diluted into different concentrations (8 concentrations) of solutions of the compound in DMSO (3-fold dilution, 20×final concentration). Each concentration of solutions (10 μL) of the compound in DMSO was respectively diluted with cell culture media (90 μL) to formulate working solutions (2×final concentration). Each concentration of working solutions (100 μL) of the compound was added to the 96-well plate inoculated with cells (1×final concentration, the highest final concentration is 1000 nM). The resulting plate continued to be cultured in a CO2 incubator.
The 96-well plate was taken out, and the density of cells was observed under a microscope. The test was performed with the MTT method.
MTT method: 20 μL of MTT was added to each well; the plate was cultured for about 4 hours in the incubator; the liquid in the well was discarded; 150 μL of DMSO was added into each well; the plate was placed in a shaker and shaken for 5-10 minutes, and the test was performed with a microplate reader at a wavelength of 550 nm. 7. Data analysis: IC50 value of the drug was calculated with SPSS19.0 statistical software.
On the technique in general: Formazan colour is commonly taken as a measure of viable cells.

For another experiment, the target named is hERG channel (Homo sapiens (Human), UniProt Q12809). Description: In vitro hERG inhibitory activity, whole-cell patch-clamp on CHO-K1 cell line stably expressing the hERG channel. An excerpt:
Rapid delayed rectifier current (IKr) was mainly mediated by the hERG ion channel and involved in human cardiomyocyte repolarization. Inhibition of IKr was the leading cause of the clinical QT interval prolongation syndrome, even acute cardiac dysrhythmia, and even sudden death. By utilizing a whole-cell patch-clamp technology, the blocking effect of a compound on the hERG channel was detected on a CHO-K1 cell line stably expressing the hERG channel, and the half inhibition concentration IC50 of the compound was determined. It was used as a part of the comprehensive cardiac safety assessment, and it was initially evaluated in the safety in vitro screen for cardiotoxicity.
This assay included the following aspects: • The hERG current was recorded on the CHO-K1 cell line stably expressing the hERG channel by utilizing the manual patch-clamp technology; • The inhibition rate at each concentration was calculated according to the hERG tail current; • The measurement was performed at 5 concentrations for each compound to calculate the IC50 value; • 3 cells were tested at each concentration; • One positive control drug was provided.
The hERG current was recorded by utilizing a whole-cell patch-clamp technology. The cell suspension was added to a dish, and the dish was placed on the object stage of an upright microscope. After adhesion of the cells, perfusion was performed with an extracellular fluid at a flow rate of […]. A glass microelectrode was pulled with a microelectrode puller via a two-step process and the pipette rip resistance was between 2-5 MΩ. After the whole-cell record was set up, the clamp potential was held at −80 mV. The cells were depolarized to +60 mV by applying a voltage stimulus and then repolarized to −50 mV to elicit the hERG tail current. All recordation was conducted after the current became stable. The extracellular perfusion administration was started from the lowest concentration, staying for 5-10 min at each concentration until the current was stable, and then conducted with the next concentration.

Molecules are shown by their SMILES.

hERG channel, sequence (Q12809 whole entry): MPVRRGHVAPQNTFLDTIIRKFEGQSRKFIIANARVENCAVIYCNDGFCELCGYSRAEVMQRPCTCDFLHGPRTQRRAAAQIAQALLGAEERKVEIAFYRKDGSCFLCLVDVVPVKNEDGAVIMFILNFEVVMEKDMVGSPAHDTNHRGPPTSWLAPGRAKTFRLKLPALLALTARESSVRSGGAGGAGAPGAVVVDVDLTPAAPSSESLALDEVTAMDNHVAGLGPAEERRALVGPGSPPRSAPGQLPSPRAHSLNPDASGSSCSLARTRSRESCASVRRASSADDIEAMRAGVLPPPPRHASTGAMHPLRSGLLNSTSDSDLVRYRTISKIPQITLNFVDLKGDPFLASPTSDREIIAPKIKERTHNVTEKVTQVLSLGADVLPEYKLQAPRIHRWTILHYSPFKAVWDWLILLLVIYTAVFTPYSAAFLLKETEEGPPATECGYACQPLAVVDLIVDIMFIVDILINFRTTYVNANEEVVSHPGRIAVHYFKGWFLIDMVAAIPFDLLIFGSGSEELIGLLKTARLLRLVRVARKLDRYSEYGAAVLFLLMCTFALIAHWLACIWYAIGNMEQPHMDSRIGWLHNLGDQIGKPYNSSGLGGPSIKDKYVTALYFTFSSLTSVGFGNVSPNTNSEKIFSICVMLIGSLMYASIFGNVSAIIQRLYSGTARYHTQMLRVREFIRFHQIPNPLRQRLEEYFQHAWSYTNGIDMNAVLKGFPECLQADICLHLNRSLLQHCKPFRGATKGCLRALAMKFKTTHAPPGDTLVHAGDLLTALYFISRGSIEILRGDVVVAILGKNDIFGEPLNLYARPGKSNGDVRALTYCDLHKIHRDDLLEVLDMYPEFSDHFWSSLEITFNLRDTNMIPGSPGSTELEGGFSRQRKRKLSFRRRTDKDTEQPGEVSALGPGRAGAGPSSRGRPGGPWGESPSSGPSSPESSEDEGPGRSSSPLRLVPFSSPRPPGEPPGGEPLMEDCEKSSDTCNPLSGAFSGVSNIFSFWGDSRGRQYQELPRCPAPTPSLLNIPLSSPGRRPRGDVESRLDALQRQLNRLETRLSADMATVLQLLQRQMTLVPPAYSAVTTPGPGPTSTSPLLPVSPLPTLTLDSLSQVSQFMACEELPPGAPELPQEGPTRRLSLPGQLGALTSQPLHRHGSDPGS

In general, IC50 refers to the concentration that gives 50% inhibition. Higher therefore signals lower potency. As for `COc1cc(F)c(F)cc1-c1cc(NC(=O)[C@H]2CCC[C@@H](NC(=O)C3(C#N)CC3)C2)ncc1F` [Compound 67], the “TGI(%)” value in experiment [1] (qd, 5 mg/Kg, 9 days) is recorded as 67.8%; in experiment [2], 67.8%. In addition, in the experiment on MV4;11 cells, the IC50 is 0.067 µM.

Consider `COc1cc(F)ccc1-c1cc(NC(=O)[C@H]2CCC[C@@H](NC(=O)C3(C#N)CC3)C2)ncc1F` [Compound 33], for which the “TGI(%)” value in experiment [1] (qd, 5 mg/Kg, 9 days) is 56.9%. Further, the IC50 in the experiment on MV4;11 cells is 0.017 µM; at hERG channel it was above 30 µM.

In the case of `COC(=O)N[C@@H]1CCC[C@H](C(=O)Nc2cc(-c3ccc(F)cc3OC)c(F)cn2)C1` [Compound 36], the IC50 is 0.044 µM with MV4;11 cells and above 30 µM against hERG channel.

As to `CNC(=O)N[C@@H]1CCC[C@H](C(=O)Nc2cc(-c3ccc(F)cc3OC)c(F)cn2)C1` [Compound 37], the IC50 with MV4;11 cells was 0.052 µM; against hERG channel, above 30 µM.

Turning to `COc1cc(F)ccc1-c1cc(NC(=O)C2CCCC(NC(C)=O)C2)ncc1F` (centres unmarked) [Compound 3], the values for the IC50 with MV4;11 cells and against hERG channel were 0.12 µM and above 30 µM, respectively.

Take `COc1cc(F)ccc1-c1ccnc(NC(=O)[C@H]2CCC[C@@H](NC(C)=O)C2)c1`: in experiment [1] (q2d, 20 mg/Kg, 9 days), the “TGI(%)” value is 51.5%.

Regarding `COc1cc(F)c(F)cc1-c1cc(NC(=O)[C@H]2CCC[C@@H](NC(=O)CO)C2)ncc1F` [Compound 68], the “TGI(%)” value in experiment [1] (qd, 5 mg/Kg, 7 days) stood at 78.1%; in experiment [2] it was 90.2%. In addition, the IC50 in the experiment on MV4;11 cells was 0.05 µM; against hERG channel, above 30 µM.

Regarding `COc1ccccc1-c1cc(NC(=O)[C@H]2CCC[C@@H](NC(C)=O)C2)ncc1F` [Compound 17], the IC50 in the experiment on MV4;11 cells is 0.025 µM; against hERG channel, above 30 µM.

Consider `COc1cc(F)ccc1-c1cc(NC(=O)[C@H]2CCC[C@@H](NC(=O)[C@H](C)O)C2)ncc1F` [Compound 48], for which the IC50 in the experiment on MV4;11 cells was 0.026 µM; against hERG channel, above 30 µM.

As to `COc1cc(F)ccc1-c1cc(NC(=O)[C@H]2CCC[C@@H](NS(C)(=O)=O)C2)ncc1F` [Compound 25], the IC50 is 0.034 µM with MV4;11 cells and above 30 µM against hERG channel.

As for `CC(=O)N[C@@H]1CCC[C@H](C(=O)Nc2cc(-c3ccc(F)cc3OC(C)C)c(F)cn2)C1` [Compound 8], the results for the IC50 in the experiment with MV4;11 cells and against hERG channel were 0.045 µM and above 30 µM, respectively.

As to `COc1cc(F)ccc1-c1cc(NC(=O)[C@H]2CCC[C@@H](NC(=O)CO)C2)ncc1F` [Compound 45], the “TGI(%)” value in experiment [1] (qd, 5 mg/Kg, 16 days) turned out to be 62.9%; in experiment [2], 58.0%. Also, the IC50 was 0.034 µM in the experiment with MV4;11 cells and above 30 µM against hERG channel.

In the case of `COc1cc(F)ccc1-c1cc(NC(=O)[C@H]2CCC[C@@H](NC(=O)CC#N)C2)ncc1F` [Compound 32], the IC50 in the experiment with MV4;11 cells was 0.011 µM; on hERG channel, above 30 µM.

On to `COc1cc(F)ccc1-c1cc(NC(=O)[C@H]2CCC[C@@H](NC(C)=O)C2)ncc1F` [Compound 5], for which the “TGI(%)” value in experiment [1] (q2d, 20 mg/Kg, 9 days) is recorded as 98.5%. Besides, the IC50 in the experiment with MV4;11 cells was 0.037 µM; against hERG channel, above 30 µM.

Regarding `CC(=O)N[C@@H]1CCC[C@H](C(=O)Nc2cc(-c3cccc4ccoc34)c(F)cn2)C1` [Compound 19], the concentration for half-maximal inhibition (IC50) in the experiment on MV4;11 cells is 0.026 µM; at hERG channel it was above 30 µM.

On to `COc1cc(F)ccc1-c1cc(NC(=O)[C@H]2CCC[C@@H](NC(=O)c3ccccn3)C2)ncc1F` [Compound 43], for which the IC50 with MV4;11 cells was 0.022 µM; on hERG channel it was above 30 µM.

The record behind these values is patent US12570607B2, “Compound as cyclin-dependent kinase 9 inhibitor and use thereof” (CSPC Zhongqi Pharmaceutical Technology (Shijiazhuang) Co., …, priority 2019, dated 2026).
